Results from the NIST ThermoML archive (doi:10.1021/je050173+).

What was measured:
[1] = for mass density / viscosity / thermal conductivity: 101.33 kPa; for mass density / viscosity / thermal conductivity / vapor or sublimation pressure: Liquid; for thermal conductivity: Hot wire method; for surface tension liquid-gas: Maximal bubble pressure
[2] = molar heat capacity at constant pressure; conditions: 101.33 kPa, Liquid

C[Si]1(C)O[Si](C)(C)O[Si](C)(C)O1 [hexamethylcyclotrisiloxane]
Conditions | mass density [kg/m3] | molar heat capacity at constant pressure [J/K/mol] | surface tension liquid-gas [mN/m] | thermal conductivity [W/m/K] | vapor or sublimation pressure [kPa] | viscosity [mPa·s]
[1], 343.15 K | 872.69 | – | – | 0.1026 | – | 0.48
[1], 344.55 K | – | – | 13.54 | – | – | –
[1], 347.35 K | – | – | 13.32 | – | – | –
[1], 347.64 K | – | – | – | – | 13.85 | –
[1], 348.15 K | – | – | – | – | – | 0.46
[1], 348.7 K | 865.41 | – | – | – | – | –
[1], 350.13 K | – | – | – | – | 15.28 | –
[1], 351.45 K | – | – | – | – | 16.19 | –
[1], 353.15 K | – | – | – | – | – | 0.44
[1], 353.95 K | – | – | 12.9 | – | – | –
[1], 354.65 K | 856.98 | – | – | – | – | –
[1], 355.59 K | – | – | – | – | 19.01 | –
[1], 357.4 K | 854.11 | – | – | – | – | –
[1], 358.15 K | – | – | – | – | – | 0.42
[1], 358.45 K | – | – | 12.68 | – | – | –
[1], 359.15 K | 852.6 | – | – | – | – | –
[1], 360.17 K | – | – | – | – | 22.55 | –
[1], 361.61 K | – | – | – | – | 23.75 | –
[1], 362.4 K | – | – | – | – | 24.47 | –
[1], 363.15 K | – | – | 12.33 | – | – | 0.4
[1], 365.71 K | – | – | – | – | 27.62 | –
[1], 366.1 K | 842.76 | – | – | – | – | –
[1], 368.15 K | – | – | 12.02 | – | – | 0.39
[1], 368.81 K | – | – | – | – | 30.71 | –
[1], 369.65 K | 838 | – | – | – | – | –
[1], 372.34 K | – | – | – | – | 34.63 | –
[1], 372.68 K | – | – | – | – | 35.01 | –
[1], 373.15 K | 833.47 | – | 11.71 | – | – | 0.37
[1], 378.15 K | – | – | 11.4 | – | – | 0.35
[1], 379.16 K | 825.64 | – | – | – | – | –
[1], 381.37 K | – | – | – | – | 46.63 | –
[1], 383.15 K | 820.39 | – | 11.09 | – | – | 0.34
[1], 383.78 K | – | – | – | – | 50.31 | –
[1], 387.85 K | 814.16 | – | – | – | – | –
[1], 387.95 K | – | – | – | – | 57.22 | –
[1], 388.15 K | – | – | – | – | – | 0.33
[1], 393.15 K | – | – | – | – | – | 0.32
[1], 397.75 K | – | – | – | – | 76.52 | –
[1], 407.63 K | – | – | – | – | 100.85 | –
[2], 339.9 K | – | 404.5 | – | – | – | –
[2], 343.15 K | – | 405.9 | – | – | – | –
[2], 345.03 K | – | 406.7 | – | – | – | –
[2], 353.15 K | – | 410.4 | – | – | – | –
[2], 357.92 K | – | 412.3 | – | – | – | –
[2], 361.2 K | – | 413.8 | – | – | – | –
[2], 365.09 K | – | 415.6 | – | – | – | –
[2], 370.16 K | – | 418.1 | – | – | – | –
[2], 374.79 K | – | 420.1 | – | – | – | –
[2], 379.42 K | – | 421.8 | – | – | – | –
[2], 383.15 K | – | 423.6 | – | – | – | –
[2], 388.06 K | – | 425.6 | – | – | – | –
[2], 393.14 K | – | 428.1 | – | – | – | –
[2], 398.01 K | – | 430 | – | – | – | –
[2], 400 K | – | 431 | – | – | – | –
[2], 404.89 K | – | 433.2 | – | – | – | –

C[Si]1(C)O[Si](C)(C)O[Si](C)(C)O[Si](C)(C)O1 [octamethylcyclotetrasiloxane]
Conditions | mass density [kg/m3] | molar heat capacity at constant pressure [J/K/mol] | surface tension liquid-gas [mN/m] | thermal conductivity [W/m/K] | vapor or sublimation pressure [kPa] | viscosity [mPa·s]
[1], 292 K | 957.55 | – | – | – | – | –
[1], 293.15 K | – | – | 17.93 | – | – | 2.45
[1], 298.15 K | – | – | – | 0.1131 | – | –
[1], 301.6 K | 946.16 | – | – | – | – | –
[1], 303.15 K | 944.21 | – | 17.28 | – | – | 2.06
[1], 311.2 K | 934.8 | – | – | – | – | –
[1], 311.8 K | – | – | – | – | 0.355 | –
[1], 313.15 K | 932.43 | – | 16.6 | – | – | 1.7
[1], 316 K | 929.12 | – | – | – | – | –
[1], 317.63 K | – | – | – | – | 0.535 | –
[1], 318.25 K | – | – | – | – | 0.548 | –
[1], 323.15 K | – | – | 15.95 | – | – | 1.44
[1], 325.62 K | 917.74 | – | – | – | – | –
[1], 328.59 K | – | – | – | – | 0.988 | –
[1], 328.78 K | – | – | – | – | 0.996 | –
[1], 330.47 K | 912.06 | – | – | – | – | –
[1], 332.94 K | – | – | – | – | 1.295 | –
[1], 333.15 K | 909.32 | – | 15.16 | – | – | 1.23
[1], 336.67 K | – | – | – | – | 1.642 | –
[1], 339.58 K | – | – | – | – | 1.926 | –
[1], 340.05 K | 900.68 | – | – | – | – | –
[1], 343.15 K | – | – | 14.5 | 0.1038 | – | 1.06
[1], 343.99 K | – | – | – | – | 2.426 | –
[1], 344.8 K | 894.99 | – | – | – | – | –
[1], 349.65 K | 889.31 | – | – | – | – | –
[1], 349.86 K | – | – | – | – | 3.277 | –
[1], 353.15 K | 884.79 | – | 13.77 | – | – | 0.92
[1], 360.26 K | – | – | – | – | 5.47 | –
[1], 363.15 K | – | – | 13.05 | – | – | 0.81
[1], 364.04 K | 872.24 | – | – | – | – | –
[1], 373.15 K | 861.35 | – | 12.38 | – | – | 0.71
[1], 376.51 K | – | – | – | – | 10.96 | –
[1], 379.31 K | – | – | – | – | 12.23 | –
[1], 381.23 K | – | – | – | – | 13.17 | –
[1], 383.15 K | – | – | – | – | – | 0.63
[1], 383.17 K | – | – | – | – | 14.24 | –
[1], 383.2 K | 849.47 | – | – | – | – | –
[1], 383.58 K | – | – | – | – | 14.44 | –
[1], 388.92 K | – | – | – | – | 17.67 | –
[1], 389.73 K | – | – | – | – | 18.2 | –
[1], 390.88 K | – | – | – | – | 18.9 | –
[1], 393.15 K | 837.64 | – | 10.98 | – | – | 0.56
[1], 396.28 K | – | – | – | – | 22.95 | –
[1], 397.6 K | 832.37 | – | – | – | – | –
[1], 403.15 K | – | – | – | – | – | 0.51
[1], 407.22 K | 821 | – | – | – | – | –
[1], 407.56 K | – | – | – | – | 33.46 | –
[1], 413.15 K | 813.94 | – | 9.58 | – | – | –
[1], 413.82 K | – | – | – | – | 40.8 | –
[1], 421.58 K | 803.91 | – | – | – | – | –
[1], 423.15 K | – | – | – | – | – | 0.41
[1], 423.24 K | – | – | – | – | 54.11 | –
[1], 433.15 K | 790.24 | – | 8.18 | – | – | –
[1], 446.26 K | – | – | – | – | 100.82 | –
[2], 293.15 K | – | 511.5 | – | – | – | –
[2], 298 K | – | 513.6 | – | – | – | –
[2], 303.15 K | – | 515.8 | – | – | – | –
[2], 306.25 K | – | 517.2 | – | – | – | –
[2], 313.12 K | – | 520.1 | – | – | – | –
[2], 319 K | – | 522.7 | – | – | – | –
[2], 323.25 K | – | 524.5 | – | – | – | –
[2], 327.55 K | – | 526.4 | – | – | – | –
[2], 334.75 K | – | 529.1 | – | – | – | –
[2], 337.88 K | – | 530.8 | – | – | – | –
[2], 342.23 K | – | 532.7 | – | – | – | –
[2], 348.05 K | – | 535.2 | – | – | – | –
[2], 352.2 K | – | 538.8 | – | – | – | –
[2], 358.83 K | – | 539.9 | – | – | – | –
[2], 364.28 K | – | 542.2 | – | – | – | –
[2], 370.25 K | – | 543 | – | – | – | –
[2], 377.55 K | – | 548 | – | – | – | –
[2], 382.48 K | – | 550.1 | – | – | – | –
[2], 388.65 K | – | 552.3 | – | – | – | –
[2], 393.15 K | – | 554.7 | – | – | – | –
[2], 399.83 K | – | 557.7 | – | – | – | –
[2], 407.15 K | – | 560.8 | – | – | – | –
[2], 415.73 K | – | 564.5 | – | – | – | –
[2], 425.95 K | – | 568.4 | – | – | – | –
